Experimental data reported in patent US11325904B2, “Tropinol esters and related compounds to promote normal processing of APP” (BUCK INSTITUTE FOR RESEARCH ON AGING, priority 2011, dated 2022).

Tested on: ectodomain of APP695 (MBP-eAPP230-624, eAPP230-624, TRX-eAPP575-624)
Assay: Surface plasmon resonance (Biacore T100) binding to APP ectodomain fragments
Experimental: We used surface plasmon resonance to assess binding of compound 14 to the APP ectodomain (eAPP) fragments was done using a Biacore T100. Biotinylated TRX-eAPP575-624 and other eAPP fragments were immobilized onto strepavidin-coated sensor CM5 chip.
Surface plasmon resonance data was obtained with a Biacore T100 for 0-50 μM compound 14 flowed at 1 μl per min in 1% DMSO, 20 mM sodium phosphate, 125 mM sodium chloride pH 7.4 over a CM5 chip cross-linked with proteins containing fragments of the ectodomain of APP695. The three proteins were MBP-eAPP230-624—a fusion protein containing maltose binding protein and residues 230-624 of the ectodomain of APP (90-kDa), eAPP230-624—a protein that contains only residues 230-624 (45-kDa), and TRX-eAPP575-624—a fusion protein containing thioredoxin and residues 575-624 of the ectodomain (20-kDa). The proteins were produced as described in Libeu et al., (2011) J. Alzheimer's Dis., 25(3): 547-566. […] FIG. 11 compares the normalized response for the all three proteins. Comparison of the normalized curves between the proteins was done with PRISM (GraphPad Inc).

Cc1nnc(C(=O)O[C@H]2C[C@H]3CC[C@@H](C2)N3C)o1 [Compound 14]
binding to the ectodomain of APP (0-50 μM compound, 1% DMSO, 20 mM sodium phosphate, 125 mM sodium chloride pH 7.4, CM5 chip): has affinity for APP and can directly bind to the ectodomain of APP
normalized response curves compared between the eAPP fragments (MBP-eAPP230-624 vs eAPP230-624 vs TRX-eAPP575-624, comparison with PRISM): not significantly different
